Laboratory results published in patent publication US12616759B2, “Uses of labeled HSP90 inhibitors” (Sloan-Kettering Institute for Cancer Research, priority 2011, dated 2026).
Where two headings read alike, the source gives them in different places.

Tests used:
359 kinases = experiment: scanMAX kinase screen (Ambit); type: binding; conditions: 10 μM
MDA-MB-468 tumors [1] = experiment: efficacy in MDA-MB-468 xenografts; type: in vivo, mice; conditions: for anti-tumor effect: 75 mg/kg, 5 weeks
Protocol: Efficacy Studies. Mice (n=5) bearing MDA-MB-468 tumors reaching a volume of 100-150 mm^3 were treated i.p. (i.p.) using different doses and schedules, as indicated. Tumor volume was determined by measurement with Vernier calipers, and tumor volume was calculated as the product of its length×width^2×0.4. Tumor volume was expressed on indicated days as the median tumor volume±SD indicated for groups of mice. Percent (%) tumor growth inhibition values were measured on the final day of study for drug-treated compared with vehicle treated mice and are calculated as 100×{1−[(TreatedFinal day−TreatedDay 1)/(ControlFinal day−ControlDay 1)]}. Tumor regression values were determined by calculating the ratio of median tumor volumes at the time when treatment was initiated to median tumor volume on the final day of study for a given treatment group. Percent (%) tumor regression is 100×[1−(TreatedFinal day/TreatedDay 1)].

AML cell lines = experiment: apoptosis in AML cell lines, acridine orange/ethidium bromide; type: cell-based, human
Protocol: (§1) Apoptosis Assay: Cells were treated for 24, 48 or 72 h with vehicle (DMSO) or inhibitors as indicated. Following staining with Acridine Orange and Ethidium Bromide (1:1 mix of 100 µg/ml), cells were visualized with a fluorescent microscope (Zeiss Axiovert 40 CFL) and counted. Percentage of apoptotic cells was determined from 200-300 cells counted in each group. The percentage of apoptotic cells was calculated as: % Apoptotic cells=(total number of cells with apoptotic nuclei/total number of cells counted)×100.

[2] = tested on: FL5.12 mAKT-transfected cells; experiment: apoptosis in mAKT-transfected FL5.12 cells; type: cell-based
Source text: FL5.12 was derived as an interleukin-3 (IL-3)-dependent cell line with a functional JAK/STAT pathway and it has characteristic features of an early lymphocytic progenitor. Both the parental cells and the transfected cells express moderate-levels of active AKT and STAT5, as evidenced by AKT phosphorylation on Ser473 and STAT5 phosphorylation on Tyr694, respectively. The level of p-STAT5 but not p-AKT is dependent on the presence of IL-3. Introduction of a constitutively activated, myristoylated form of AKT (mAKT) under the control of a doxycycline (DOX)-inducible promoter further allows for the regulation of p-AKT levels in these cells. All together, these cells are a good isogenic model to evaluate the dependence of HSP90 inhibitor apoptotic sensitivity on activated AKT and STAT5-pathways.
Cells: Kasumi-1, SKNO-1, MOLM-13, MO-91, HEL, HL-60, THP-1, MV4-11 were grown in RPMI media supplemented with 10 mM HEPES, 4.5 g/L glucose, 1.5 g/L sodium bicarbonate, 1 mM sodium pyruvate, 10% FBS, and 1% penicillin/streptomycin. The stable transfectants of FL5.12 were previously described (18-Karnauskas 2003). In brief, for the generation of FL5.mAKT the myristylated AKT was cloned in the doxycycline inducible vector pRevTRE (Clontech) (this clone is designated mAKT). As a control, cell were transfected with vector alone (this clone is designated Vector). For generation of FL5.mAkt.Bcl-xL, the human Bcl-xL cDNA was cloned into the EcoRI site of the pBabePuro vector, and transfected into FL5.mAkt3 as described (18) (this clone is designated mAKT.Bcl-xL). These lines were cultured as described previously using DME-HG media supplemented with 10 mM HEPES, 10% FBS media containing 1 mg/ml Geneticin (G418) (Sigma #G9516) and 1 or 2 ng/mL of IL-3 (RD Systems #403 ML).
as §1
Western blot: Cells were grown to 60-70% confluence and treated with inhibitor or vehicle for the indicated times. Protein lysates were prepared in 50 mM Tris pH 7.4, 150 mM NaCl and 1% NP-40 lysis buffer. Protein concentrations were measured using the BCA kit (Pierce) according to the manufacturer's instructions. Protein lysates (10-100 μg) were resolved by SDS-PAGE, transferred onto nitrocellulose membrane and incubated with the indicated primary antibodies. […]

tumor HSP90 = conditions: for available HSP90 tumor sites occupied: 24 h
[3] = PU-H71 tumor concentration predicted from [^124I]-PU-H71 PET (equation 1a, simulations); conditions: mouse, tumor (MDA-MB-468), 75 mg/kg
MDA-MB-468 tumors [4] = experiment: as above
MDA-MB-468 cells = experiment: MDA-MB-468 and other breast cancer cells in vitro: growth inhibition, client depletion, apoptosis
oncogenic HSP90 = experiment: PU-H71-FITC2 binding to pancreatic and breast cancer cell lines relative to HL-60 versus viability

CC(C)NCCCn1c(Sc2cc3c(cc2I)OCO3)nc2c(N)ncnc21 [PU-H71]
kinase hits (359 kinases): Only SNARK (NUAK family SNF1-like kinase 2) (red dot on the kinase tree) appears as a potential low affinity kinase hit | tumor volume at end of treatment (MDA-MB-468 tumors [1]; 5 mg/kg arm): 139±66 mm^3 | tumor growth inhibition (TGI) (MDA-MB-468 tumors [1]; 5 mg/kg i.p. 3×week, 7 weeks): 63% | tumor growth inhibition (TGI) (MDA-MB-468 tumors [1]; 25 mg/kg i.p. 3×week, 7 weeks): 82% | tumor growth inhibition (TGI) (MDA-MB-468 tumors [1]; 50 mg/kg i.p. 3×week, 7 weeks): 99% | regression (MDA-MB-468 tumors [1]; 75 mg/kg i.p. 3×week, 7 weeks): 100% | anti-tumor effect (MDA-MB-468 tumors [1]; 1×week): significant tumor growth inhibition | anti-tumor effect (MDA-MB-468 tumors [1]; 2×week): tumor regressions | average occupancy of tumor HSP90 sites needed for tumor regression and cure (MDA-MB-468 tumors [1]; averaged over the time of treatment): over 80% | average occupied sites that may still lead to partial response (MDA-MB-468 tumors [1]; over the time of treatment): ≥ 15% | average tumor concentration needed for tumor regression and cure (MDA-MB-468 tumors [1]; over the time of treatment): 5 µM | average tumor concentration that may still lead to partial response (MDA-MB-468 tumors [1]; over the time of treatment): ≥ 0.5 µM | cells undergoing apoptosis (AML cell lines; HEL, 72 h): 30% | cells undergoing apoptosis (AML cell lines; MOLM-13 and MO-91, 72 h): ~100% | cells undergoing apoptosis (AML cell lines; SKNO-1 and Kasumi-1, 72 h): 50-60% | apoptotic cells ([2]; p-AKT increased by Dox): 50% | apoptotic cells ([2]; without Dox): 35-40% | available HSP90 tumor sites occupied (tumor HSP90; 5 mg/kg): 12.1% | available HSP90 tumor sites occupied (tumor HSP90; 25 mg/kg): 57.7% | available HSP90 tumor sites occupied (tumor HSP90; 50 mg/kg): 88.7% | available HSP90 tumor sites occupied (tumor HSP90; 75 mg/kg): 92.7% | BMAX, maximum HSP90 per gram of tumor (tumor HSP90; 24 h post-injection, one gram of tumor): 160.7×10^−3 nmols | BMAX as HSP90 molecules per gram of tumor (tumor HSP90; one gram of tumor): 960×10^11 HSP90 molecules | concentration at 24 h [3]: 5510 nM | concentration at 72 h [3]: 2180 ± 1780 nM | concentration at 96 h [3]: 2180 nM | tumor concentration of PU-H71 (MDA-MB-468 tumors [4]; 1 mg/kg, 48 h and beyond): less than 0.05 μM | simulated tumor concentration at the time of sacrifice (MDA-MB-468 tumors [4]; 5 mg/kg 3×week, 24 h after last dose): 0.43 µM | [PU-H71tumor]avg (MDA-MB-468 tumors [4]; 75 mg/kg, 1×week): 2.88 µM | [PU-H71tumor]avg (MDA-MB-468 tumors [4]; 75 mg/kg, 2×week): 5.41 µM | [PU-H71tumor]avg (MDA-MB-468 tumors [4]; 75 mg/kg, 3×week): 7.45 µM | tumor concentration from PET or biodistribution studies (MDA-MB-468 tumors [4]; 75 mg/kg, 24 h): 5.51 ± 1.78 µM | concentrations resulting in HSP90 inhibition (depletion of Raf-1, Akt) (MDA-MB-468 cells; MDA-MB-468, 24 h): above 0.1 μM | concentration required for about 50% of cells undergoing apoptosis (MDA-MB-468 cells; MDA-MB-468, 48 h): 0.5 µM | concentration required for about 100% of cells undergoing apoptosis (MDA-MB-468 cells; MDA-MB-468, 48 h): about 5 μM | cells undergoing apoptosis (MDA-MB-468 cells; MDA-MB-468, >2 μM, 48 h): > 70% | sensitivity of HL-60 leukemia cells (oncogenic HSP90): resistant
